For the experiment, the system named is CEM cells HIV-1 protection, formazan growth assay. The experiment can be described thus: NCI AIDS Antiviral Assay. The settings on record: for IC50: measured here: growth of uninfected CEM cells. A digest of the protocol: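 Soluble formazan readout of cell growth; CEM cells ± HIV-1; 5 drug concs. ≥50% protection → retest; ≥50% again = moderately active; reproducible 100% = confirmed active.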

What is called EC50 is the concentration giving half of the maximal effect. A word on the IC50: it is the concentration at which inhibition is half-maximal. A high value points to weaker potency in that assay.

Values joined by “and” are separate entries in the source; they are usually repeats but may differ in a detail not shown here. Equal entries are not always repeated. Active and inactive are the calls of the source.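 Rule for the calls: active = compounds giving half or more protection of infected cells from virus-caused growth loss, again on retest; inactive = the rest.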 Where only a bound is given, the exact number is not on record here.

For `C/C=C/C#CC#CC(O)C(/C=C/CCCO)OC1OC(CO)C(O)C(O)C1O` (stereo not given), the EC50 is above 158 µM and the IC50 was above 158 µM.
Consider `CCn1ncc2c1nc(-c1ccccc1)c[n+]2[O-]`, for which the EC50 is above 200 µM and the IC50 is above 200 µM.
For `Cc1cc(=O)[nH]c2cc(NC(=O)C(C)NC(=O)C(C)NC(=O)C(C)NC(=O)OC(C)(C)C)ccc12` (stereo not given), the EC50 was above 200 µM and the IC50 is above 200 µM.
On to `Nc1c2ccccc2nc2nccnc12`, for which the EC50 is above 26.3 µM and the IC50 was above 26.3 µM.
In the case of `CCCC/C=C(\CCCNCCCC)[Si](C)(C)C`, the EC50 was above 479 µM and the IC50 came to 178 µM.
Turning to `Nc1ccc(C(=O)NN2C(=O)C(Cl)C2c2ccc(O)cc2)cc1` (stereo not given), the EC50 was above 200 µM and the IC50 came out at 9.12 µM.
On to `CN(C)CCNc1cccc2oc3ccc(O)cc3c(=O)c12`, for which the EC50 is above 437 µM and the IC50 worked out at 5.75 µM.
Consider `N#C[C@H]1Nc2ccccc2[C@@H](O)C1O` (stereo not given in full), for which the EC50 is above 1320 µM and the half-inhibitory concentration (IC50) is above 1320 µM.
On to `COc1ccc(-c2c(C#N)c(S)n(C3OC(CO)C(O)C(O)C3O)c(=O)c2C#N)cc1` (stereo not given), for which the EC50 was above 200 µM; the IC50 was 195 µM and > 200 µM.
In the case of `CC(C)(c1ccccc1)c1ccc(Oc2ccc(C#N)c(C#N)c2)cc1`, the EC50 is above 29.5 µM and the IC50 came to 28.8 µM.
As to `CN(C)CCCN1C(=O)C2CCC(C)(C1=O)C2(C)C` (stereo not given), the EC50 was above 832 µM and the IC50 turned out to be 12.9 µM.
For `COc1cc(Nc2nc3ccc(C(F)(F)F)cc3nc2-c2ccccc2)cc(OC)c1OC`, the EC50 was above 20.9 µM and the IC50 is above 20.9 µM.
On to `OC12C=CC(CCCC1)O2` (stereo not given), for which the EC50 is above 200 µM and the IC50 was 12.3 µM.
For the compound `CCN(CC)CCSc1c2ccccc2nc2c(OC)ccc(OC)c12`, the result was inactive.
As to `CCOC(=O)C(Cc1ccc2c(c1)CCC2)Cc1ccc2c(c1)CCC2`, the EC50 is above 200 µM and the IC50 is 1.62 µM.
For `C=CC[C@@H]1C(=O)[C@@]2(O[Si](C(C)C)(C(C)C)C(C)C)CC[C@@H]1C[C@H]2NC(=O)OCC(Cl)(Cl)Cl`, in that order: above 200 µM and above 200 µM.
Regarding `O=C(C/C(=N\NC(=O)C[n+]1ccccc1)C(=O)Nc1nc2ccc([N+](=O)[O-])cc2s1)CC(c1ccccc1)c1c(O)c2ccccc2oc1=O` (stereo not given), the EC50 is above 2.75 µM and the IC50 is above 2.75 µM.
`Cc1cccc(C)c1NC(=O)C(=O)C(c1ccccc1Cl)S(=O)(=O)Cc1ccccc1Cl` (stereo not given): the EC50 was 151 µM and the IC50 is above 200 µM.
For `O=S(=O)(O)C(C(I)I)S(=O)(=O)O`, in that order: above 200 µM and above 200 µM.
For the compound `Cc1ccc(NC(=O)C(=O)CC(=O)c2sc(Nc3c(C)cccc3C)nc2C)cc1C`, the EC50 was above 200 µM and the IC50 was above 200 µM.
Regarding `COc1ccc(C2c3cc4c(cc3OC(NNc3ccccc3)C2C)OCO4)cc1` (stereo not given), the EC50 is above 200 µM and the concentration for half-maximal inhibition (IC50) was found to be 11.7 µM.
On to `C=CCNC(=O)N1CC(C)C(=O)Nc2ccccc21` (stereo not given), for which the EC50 was above 200 µM and the IC50 was above 200 µM.
Regarding `COC(CC1(/C=C/O[Si](C(C)C)(C(C)C)C(C)C)C(=O)N(COCC[Si](C)(C)C)c2ccccc21)OC` (stereo not given), the EC50 was above 200 µM and the IC50 was 36.3 µM.
On to `O=C(O)CNc1cc(-c2ccccc2)nc(NCC(=O)O)n1`, for which the result was inactive.
`O=C1c2ccccc2-c2c(Br)c3ccccc3c(=O)n21`: the EC50 was above 100 µM and the IC50 was determined as 69.2 µM.
Consider `CC(C)CC(=O)CC(C)[C@]1(CCCOCc2ccccc2)C(=O)N2CCC3(C[C@@]24CCC[C@H]41)OCCO3` (stereo not given in full), for which the EC50 is above 200 µM and the IC50 amounted to 35.5 µM.
For `C=C(C)C(CCC(=O)O)(CCC(=O)O)C(C)=O`, the EC50 is above 1020 µM and the IC50 is above 1020 µM.
Regarding `Cc1c2ccccc2nc(CSc2ccccc2N)[n+]1[O-]`, the EC50 was 64.6 µM and the IC50 is above 200 µM.
As for `Cn1cnc([N+](=O)[O-])c1Sc1nncc2[nH]cnc12`, the EC50 was 46.8 µM and the IC50 was above 200 µM.
For `O=S(=O)(Nc1nnc2c3ccccc3cnn12)c1ccc(Cl)cc1S`, in that order: 36.3 µM and 490 µM.
As for `O=[N+]([O-])c1cc(C(F)(F)F)ccc1S(=O)(=O)c1ccccc1`, the EC50 was above 77.6 µM; the IC50 was 3.89 µM and 1.26 µM.
As for `Cc1ccc(-c2ccc(Nc3c4ccccc4nc4ccccc34)cc2)cn1`, the EC50 is above 200 µM and the concentration for half-maximal inhibition (IC50) came to 2.69 µM.
As for `C(COC1CC2CC1C1CC3OC3C21)OCCOC1CC2CC1C1CC3OC3C21` (stereo not given), the EC50 is above 200 µM and the IC50 came to 77.6 µM.
For `O=C(NCCS(=O)(=O)N1C(=O)C2CCCN2C(=O)[C@@H]1Cc1ccccc1)OCc1ccccc1` (stereo not given in full), in that order: above 100 µM and 53.7 µM.
For `Cc1cccc2c1Oc1cc(Cl)ccc1C2NC(=O)CCN1CCOCC1` (stereo not given), in that order: above 200 µM and above 200 µM.
On to `CC[C@H]1[C@@H](C)C=C[C@@H](C)N1S(=O)(=O)c1ccc(C)cc1`, for which the EC50 is above 17.8 µM and the IC50 was above 17.8 µM.
For the compound `C[Si](C)(C)C(Sc1ccccc1)(Sc1ccccc1)Sc1ccccc1`, the outcome was inactive.
For `CS(=O)(=O)N1CC(CCl)c2ccc([N+](=O)[O-])cc21` (stereo not given), the EC50 was 91.2 µM and the IC50 was above 200 µM.
As for `CCN(CC)C1=CC(=O)C(=O)c2cccnc21`, the result was inactive.
With `CC1(CC(=O)O)C(=O)CCCC1=O`, the result was inactive.
Take `CCOC(=O)N1CCN(P(=O)(Nc2ccc3nc(NC(=O)OC)[nH]c3c2)Oc2ccccc2)CC1` (stereo not given): the EC50 is above 135 µM and the IC50 amounted to 53.7 µM.
For `Cc1sc(Nc2ccccc2[N+](=O)[O-])c(C#N)c1C`, in that order: 15.5 µM and above 200 µM.
In the case of `O=C(CN1CCOCC1)c1ccc2c(c1)oc(=O)n2CCN1CCCC1`, the EC50 was above 200 µM and the IC50 is 95.5 µM.
For `CC12C(=C(C#N)C(=N)N1c1ccc(Cl)c(Cl)c1)C=C(O)CC2SCCS(=O)(=O)O` (stereo not given), in that order: 33.1 µM and 67.6 µM.
In the case of `COc1nc(NC2OC(CO)C(O)C(O)C2O)cc(=O)n1C` (stereo not given), the result was inactive.
Consider `Cc1ccc(/C=C2\Sc3scc(-c4ccccc4)[n+]3C2=O)cc1`, for which the EC50 was above 200 µM and the IC50 was determined as 89.1 µM.
With `O=C(O)c1cccc(Nc2c(C(=O)O)cccc2[N+](=O)[O-])c1`, the EC50 was above 200 µM and the IC50 was 6.31 µM.
On to `COc1ccc(C2CN(C(=O)c3ccccc3)N=C(c3ccccc3)O2)cc1` (stereo not given), for which the EC50 was above 17 µM and the IC50 was above 17 µM.
In the case of `COc1ccccc1NC(=O)/C(Cc1nc2ccc([N+](=O)[O-])cc2[nH]c1=O)=N\NC(=O)C[N+](C)(C)C`, the EC50 was above 245 µM and the IC50 is 50.1 µM.
`COC(=O)C1C(=O)C(C(=O)OC)C2CCC1N2C` (stereo not given): the EC50 was above 200 µM and the IC50 came to 42.7 µM.
For `Cc1cc2c(-c3ccccc3)cc(=O)[nH]c2cc1N`, in that order: 186 µM and above 200 µM.
For `O=C1/C(=C\c2ccccc2O)Cc2ccccc21`, the EC50 is above 148 µM and the IC50 came out at 28.2 µM.
For `CSC1=N/C(=C\c2cccs2)C(=O)N1CN1CCOCC1`, in that order: above 200 µM and 38 µM.
Turning to `O=C(OCc1ccccc1)N1CC[C@@H](O)[C@@H](CNC23CC4CC(CC(C4)C2)C3)C1`, the EC50 was above 631 µM and the IC50 was determined as 23.4 µM.
On to `COc1cc2c(c(OC)c1OC)C(=O)[C@H](Br)[C@H]2NC(=O)NCCCl`, for which the EC50 is above 200 µM and the IC50 was found to be 32.4 µM.
For `CN1CC[C@@H](c2c(O)cc(O)c3c(=O)cc(-c4ccccc4Cl)oc23)[C@@H](O)C1`, in that order: 0.01 µM and 0.0468 µM.
Take `N/N=C(\N)c1ccc(NC(=O)c2ccc(C(=O)Nc3ccc(/C(N)=N/N)cc3)cc2)cc1`: the EC50 is above 200 µM and the IC50 turned out to be 93.3 µM.
For `O=C1C2C3C=C4c5ccccc5N(c5ccccc5)C4([C@@H]2C(=O)N1c1ccc(F)cc1)[C@H]1C(=O)N(c2ccc(F)cc2)C(=O)[C@@H]31` (stereo not given in full), in that order: above 12 µM and above 12 µM.
For `N#Cc1c(-c2ccc(Cl)cc2)[nH]c(=O)n(C2OC(CO)C(O)C(O)C2O)c1=O` (stereo not given), in that order: above 200 µM and above 200 µM.
For `Cc1ccc(S(=O)c2ccccc2[N+](=O)[O-])cc1` (stereo not given), the EC50 was above 35.5 µM and the IC50 was found to be 28.2 µM.
For `Cc1ccc(S(=O)(=O)NCCSCCSCCNS(=O)(=O)c2ccc(C)cc2)cc1`, in that order: above 38.9 µM and above 38.9 µM.
Regarding `COC(=O)[C@@H]1CSC(=S)N1C(=O)C[C@H]1CC=CC[C@H]1CC(=O)Sc1ccccc1`, the result was inactive.
Regarding `COC(=O)CC(C(C(C)=O)C(=O)OCc1ccccc1)N1C(=O)OCC1c1ccccc1` (stereo not given), the EC50 is above 100 µM and the IC50 was 95.5 µM.
For `CC(C)OP(=O)(OC(C)C)c1ccc2c(c1)OCCOCCOCCOCCO2`, in that order: above 200 µM and above 200 µM.
Turning to `COc1ccc(Br)c(CCCCC(=O)O)c1`, the outcome was inactive.
Take `O=C(O)C1C2C=CC(C2)C1c1c2ccc(=O)c(O)c-2oc2c(O)c(O)ccc12` (stereo not given): the EC50 is above 200 µM and the half-inhibitory concentration (IC50) is 26.3 µM.
For `C[C@H]1CC[P+](Cc2ccccc2)(c2ccccc2)C1` (stereo not given in full), in that order: above 708 µM and 33.1 µM.
For `Cc1[nH]c2nccn2c(=O)c1CCCl`, in that order: above 200 µM and 11.5 µM.
For `COC(=O)N/N=C(\C)c1sc(-c2nc(C)c(/C(C)=N/NC(=O)OC)s2)nc1C`, in that order: above 32.4 µM and above 32.4 µM.
Take `O=S(O)CCCSSCCCCSSCCCS(=O)O`: the outcome was inactive.
As for `C(=C/c1ccc2nc(-c3ccc(/C=C/C=N/NC4=NCCCN4)cc3)cn2c1)/C=N/NC1=NCCCN1`, the EC50 was above 100 µM and the IC50 amounted to 16.6 µM.
For `Cc1nc(NS(=O)(=O)c2ccc(NC(=O)c3ccccc3SC(=O)CCCC[n+]3ccccc3)cc2)oc1C`, in that order: 16.6 µM and 52.5 µM.

For the origin of these results see PubChem BioAssay AID179 (DTP/NCI, 2004).
